We go through five compounds from paper PMC11345829, “Discovery of Potent Isoquinolinequinone N-Oxides to Overcome Cancer Multidrug Resistance” (Journal of Medicinal Chemistry, 2024).

One experiment relates to DLD1-TxR. Kind of experiment: SRB cell growth inhibition assay. The settings on record: for GI50: Homo sapiens, SRB assay, 48 h, colorectal cancer MDR, mean ± SEM. The format is cell-based, human. As for the experimental part: (§1) Two distinct pairs of counterpart drug-sensitive and MDR human tumor cell lines were used, namely the non-small lung cancer (NSCLC) NCI-H460 (same cell line as in the NCI screen) and its MDR counterpart cell line NCI-H460/R and the colorectal cancer DLD1 and its MDR counterpart cell line DLD1-TxR (Table 3). The screening was performed using the SRB assay, and the GI50 for each compound was determined by interpolation on the attained concentration−response curves and compared with NCI60 screening data (SI, Figures S62−S63; Table S21).
(§2) Two pairs of drug-sensitive and multidrug-resistant (MDR) cell lines from human nonsmall cell lung cancer (NSCLC), NCI-H460 and NCI-H460/R, and colorectal cancer, DLD1 and DLD1-TxR, kindly provided by Dr M. Pešić (Belgrade, Serbia), were used to evaluate the growth inhibition potential of the compounds 1, 2, 3, 4, 5, 20, 23, 24, an 25.[76],[77] Additionally, growth inhibition assays were performed with compound 25 on two other NSCLC cell lines, A549 and NCI-H322, obtained from the American Type Culture Collection (ATCC) and the European Collection of Authenticated Cell Cultures, respectively. The A549 cell line was maintained in Dulbecco’s Modified Eagle Medium (DMEM) supplemented with 4.5 g/L Glucose with UltraGlutamine with sodium pyruvate (Lonza, Basel Stücki, Switzerland), enriched with 10% fetal bovine serum (FBS; Biowest, Nuaillé, France). The lung fibroblast MRC-5 cell line and the remaining NSCLC and colorectal cancer cell lines were cultured in Roswell Park Memorial Institute (RPMI) 1640 (with stable glutamine and 25 mM HEPES) medium (Biowest), supplemented with 10% fetal bovine serum. […] For the sulforhodamine B (SRB) and 3D cell culture assays, the media were supplemented with 5% FBS. The remaining experiments were performed with medium supplemented with 10% FBS.
(§3) Cells were seeded at a previously determined optimal cell concentration (5.0 × 10^4 cells/mL for NSCLC cells and the nontumorigenic MRC-5 cell line and 1.0 × 10^5 cells/mL for colorectal cancer cells) and incubated at 37 °C for 24 h. […] The SRB assay was performed as previously described.[78],[79] Briefly, after fixing cells with 10% (w/v) ice-cold trichloroacetic acid (Merck Life Science), the proteins were stained with 0.4% of SRB (Merck Life Science) in acetic acid (Merck Life Science). Following washing steps in acetic acid, the bound dye was solubilized with 10 mM Tris base solution (Merck Life Science). Absorbance was measured at 510 nm in a multiplate reader (Synergy Mx, Biotek Instruments Inc., Winooski, Vermont, USA) using the Gen5 software (Biotek Instruments Inc.).

Another experiment has as its system NCI-H460/R. Kind of experiment: SRB cell growth inhibition assay. It is filed as cell-based, human. As for the experimental part: Two distinct pairs of counterpart drug-sensitive and MDR human tumor cell lines were used, namely the non-small lung cancer (NSCLC) NCI-H460 (same cell line as in the NCI screen) and its MDR counterpart cell line NCI-[…] and the colorectal cancer DLD1 and its MDR counterpart cell line DLD1-TxR (Table 3). The screening was performed using the SRB assay, and the GI50 for each compound was determined by interpolation on the attained concentration-response curves and compared with NCI60 screening data (SI, Figures S62-S63; Table S21). Two pairs of drug-sensitive and multidrug-resistant (MDR) cell lines from human nonsmall cell lung cancer (NSCLC), NCI-H460 and NCI-[…], and colorectal cancer, DLD1 and DLD1-TxR, kindly provided by Dr M. […] The A549 cell line was maintained in Dulbecco's Modified Eagle Medium (DMEM) supplemented with 4.5 g/L Glucose with UltraGlutamine with sodium pyruvate (Lonza, Basel Stücki, Switzerland), enriched with 10% fetal bovine serum (FBS; Biowest, Nuaillé, France). […] For the sulforhodamine B (SRB) and 3D cell culture assays, the media were supplemented with 5% FBS. The remaining experiments were performed with medium supplemented with 10% FBS. […] The SRB assay was performed as previously described.[78],[79] Briefly, after fixing cells with 10% (w/v) ice-cold trichloroacetic acid (Merck Life Science), the proteins were stained with 0.4% of SRB (Merck Life Science) in acetic acid (Merck Life Science). Following washing steps in acetic acid, the bound dye was solubilized with 10 mM Tris base solution (Merck Life Science). Absorbance was measured at 510 nm in a multiplate reader (Synergy Mx, Biotek Instruments Inc., Winooski, Vermont, USA) using the Gen5 software (Biotek Instruments Inc.).

A further experiment deals with DLD1. Nature of the experiment: SRB cell growth inhibition assay. The format is cell-based. Conditions: Homo sapiens, DLD-1, 48 h, colorectal cancer sensitive, mean ± SEM.
Text: as §1, with “Taking into consideration the promising results of preliminary NCI screening, nine compounds (1, 2, 3, 4, 5, 20, 23, 24, 25) were selected for further screening in two counterpart pairs of sensitive and MDR cell lines. […] Two” for “Two”
as §2, §3

The subject of experiment [1] is NCI-H460. Nature of the experiment: SRB cell growth inhibition assay. The format is cell-based. Conditions: Homo sapiens, 48 h, NSCLC sensitive, mean ± SEM.
Text: as §1, with “Taking into consideration the promising results of preliminary NCI screening, nine compounds (1, 2, 3, 4, 5, 20, 23, 24, 25) were selected for further screening in two counterpart pairs of sensitive and MDR cell lines. […] Two” for “Two”
as §2, §3

The subject of experiment [2] is NCI60 tumor cell line panel. Further details: method as in PMID 31894828. Conditions: against 53 human tumor cell lines; cited from earlier work.
For experiment [3], the system named is NCI-H460. Kind of experiment: NCI60 five-dose GI50 (NCI data). It is filed as cell-based. The settings on record: Homo sapiens, NCI data provided for comparison, read-out: NSCLC NCI-H460 GI50 (NCI). From the text:
(§4) The concentration−response curve generated enables the determination of three criteria, GI50 (drug concentration at which 50% of cell growth is inhibited), total growth inhibition (TGI) and LC50 (drug concentration at which 50% of tumor cells are killed) which can be used to compare effectiveness against any compound tested in the screen since its inception.
(§5) S2.1 NCI Screening Assay Experimental details
(§6) NCI Screening Assay Experimental: Cancer cell growth assays (NCI60 screening) 5,6 One-dose study: Tested compounds were initially solubilised in DMSO, diluted into RPMI 1640 and 5% fetal bovine serum/L-glutamine, and added to 96-well plates containing cell lines previously cultured for 24 h. After 48 h incubation, the media were removed, and the cells were fixed and stained with sulforhodamine B to determine overall percent growth/ total protein content. Unbound dye was removed with five washes of 1% acetic acid, and the plates were allowed to air dry. The dye was then resolubilised in Tris buffer, and the colorimetric absorbance was measured (515 nm). Growth inhibition was measured relative to the response generated from proliferating cells cultured under identical conditions for 48 h. Data from one-dose experiments pertains to the percentage growth at […]
(§7) Five-dose study: Serial 5 × 10-fold dilution from an initial DMSO stock solution was performed, prior to incubation at each individual concentration (10 nM, 100 nM, 1 μM, 10 μM and 100 μM). Using seven absorbance measurements (time zero (Tz), control growth (C), and test growth in the presence of drug at the five concentration levels (Ti)), the percentage growth was calculated at each of the drug concentrations levels. Percentage growth inhibition was calculated as: [(Ti − Tz)/(C − Tz)] × 100 for concentrations for which Ti ≥ Tz, [(Ti − Tz)/Tz] × 100 for concentrations for which Ti < Tz. Three dose response parameters were calculated for each experimental agent. […]
(§8) was calculated from [(Ti − Tz)/(C − Tz)] × 100 = 50, which is the drug concentration resulting in a 50% reduction in the net protein increase (as measured by sulforhodamine B staining) in control cells during the drug incubation. The drug concentration resulting in total growth inhibition (TGI) was calculated from Ti = Tz. The LC50 (concentration of drug resulting in a 50% reduction in the measured protein at the end of the drug treatment as compared to that at the beginning) indicating a net loss of cells following treatment was calculated from [(Ti − Tz)/Tz] × 100 = −50. Values were calculated for each of these three parameters if the level of activity was reached; however, if the effect was not reached or was exceeded, the value for that parameter was expressed as greater or less than the maximum or minimum concentration tested.

In another experiment the test system is K-562. Nature of the experiment: NCI60 five-dose GI50. It is filed as cell-based. Conditions: Homo sapiens, K562, five dose.
Text: as §4, §5, §6, §7, §8

A further experiment concerns COLO-205. Nature of the experiment: NCI60 five-dose GI50. Conditions: Homo sapiens, colon. It is filed as cell-based.
Text: as §4, §5, §6, §7, §8

Another experiment concerns NCI-ADR/RES. Kind of experiment: NCI60 five-dose GI50. The format is cell-based. Conditions: Homo sapiens, MDR ovarian.
Text: as §4, §5, §6, §7, §8

Another experiment relates to UACC-62. Nature of the experiment: NCI60 five-dose GI50. The format is cell-based. The settings on record: Homo sapiens, melanoma.
Text: as §4, §5, §6, §7, §8

A further experiment relates to MCF-7. Nature of the experiment: NCI60 five-dose GI50. It is filed as cell-based. Conditions: Homo sapiens, MCF7, breast.
Text: as §4, §5, §6, §7, §8

A further experiment has as its system LOX-IMVI. Nature of the experiment: NCI60 five-dose GI50. It is filed as cell-based. The settings on record: Homo sapiens, melanoma.
Text: as §4, §5, §6, §7, §8

In a further experiment the test system is OVCAR-3. Nature of the experiment: NCI60 five-dose GI50. It is filed as cell-based. The settings on record: Homo sapiens, ovarian.
Text: as §4, §5, §6, §7, §8

The test system of a further experiment is OVCAR-8. Kind of experiment: NCI60 five-dose GI50. It is filed as cell-based. The settings on record: Homo sapiens, ovarian.
Text: as §4, §5
as §6, with “nm).” for “nm). Growth inhibition was measured relative to the response generated from proliferating cells cultured under identical conditions for 48 h. Data from one-dose experiments pertains to the percentage growth at”
as §7, §8

In experiment [4] the test system is NCI60 tumor cell line panel. Kind of experiment: NCI60 five-dose screen, mean over panel. It is filed as cell-based, human. Conditions: five dose.
Text: as §4, §5, §6, §7, §8

The test system of experiment [5] is NCI60 tumor cell line panel. Kind of experiment: NCI60 one-dose screen (10 μM), mean growth. The format is cell-based, human. Conditions: 48 h, one dose 10 μM, mean cell growth of 60 tumor cell lines; for activity at 10 µM: Homo sapiens. On the procedure: as §5
as §6, with “h.” for “h. Data from one-dose experiments pertains to the percentage growth at”

The test system of another experiment is NCI-H460/R spheroids. Kind of experiment: Cell Titer-Glo 3D spheroid viability assay. The format is cell-based, human. Conditions: 48 h; 25 at 0.35 and 0.7 μM; etoposide 2 μM. Background: In ATP-based viability assays light output follows the ATP content of the culture.
Setting [6] is: Homo sapiens, across 57-60 cell lines (number given per compound), read-out: Mean of GI50 as Log 10 Concentration (SD) (converted).
Where [7] appears, read: mean over 52 human tumor cell lines common to all analogues, read-out: mean GI50.

Read-outs that look alike come from different tables or passages of the source.

Protocol for NCI-H460/R spheroids: Results are presented as the % of luciferase luminescence relative to the “blank” cells (medium).
Spheroid formation was conducted in 12-series agarose 3D Petri Dish micromolds (MicroTissues Technology, MicroTissues Inc., Sigma-Aldrich). The agarose micromolds were prepared using 1% agarose in a 0.9% NaCl solution and then placed in 12-well plates and equilibrated with RPMI supplemented with 10% FBS for at least 2 h before cell seeding. Cell suspensions corresponding to 500 cells per spheroid of the NSCLC cell lines (NCI-H460 and NCI-H460/R), and 1000 cells per spheroid of the colorectal cancer cell lines (DLD1 and DLD1-TxR) were seeded in the corresponding micromolds. […] Spheroid formation was monitored with the Leica DMi1 microscope. […] At the end of the treatment, images from at least 8 different spheroids per condition were captured on the Leica Dmi1 microscope, and posteriorly analyzed with the automated open-source software AnaSP.[82] Spheroid parameters, such as equivalent diameter, circularity, and compactness, were calculated.
Spheroid viability was determined through the luminescence-based Cell Titer-Glo 3D cell viability assay (Promega). […] The plate was then incubated in the dark for 5 min with agitation and allowed to rest for 25 min before luminescence measurement. Luminescence was quantified using the microplate reader Synergy MX coupled with the GEN5 software. […]

In the case of `COC(=O)c1c2c(c(C)[n+]([O-])c1C)C(=O)C=CC2=O` [Compound 3], the “selectivity ratio colorectal cancer” value in the experiment with DLD1-TxR (GI50 sensitive DLD1 / GI50 MDR DLD1-TxR) was found to be 1.4. The GI50 in the experiment on DLD1-TxR was 4800 ± 70 nM; in the experiment on NCI-H460/R (Homo sapiens, NCI-H460, SRB assay, 48 h, NSCLC MDR, mean ± SEM), 4280 ± 1080 nM; with DLD1, 6620 ± 350 nM; with NCI-H460 [1], 8430 ± 1410 nM; in [2], 1750 nM; in the experiment on NCI-H460 [3] it was 731 nM. Further, in the experiment with NCI-H460/R (GI50 sensitive NCI-H460 / GI50 MDR NCI-H460/R), the “selectivity ratio NSCLC” value is given as 2.

On to `COC(=O)c1c2c(c(C)[n+]([O-])c1C)C(=O)C(NCc1ccc(F)c(Cl)c1)=CC2=O` [Compound 18], for which the GI50 in the experiment on K-562 (leukemia) turned out to be 2670 nM; in the experiment on COLO-205, 588 nM; with NCI-ADR/RES, 2080 nM; in the experiment on UACC-62, 1380 nM; with MCF-7, 1320 nM; in the experiment on LOX-IMVI, 2340 nM. Besides, the GI50 in the experiment with OVCAR-3 is 306 nM; in the experiment with OVCAR-8, 2380 nM; in experiment [4] (setting [6]), 1800 nM; in [4] (setting [7]), 1510 nM. For the same compound, the activity at 10 µM in experiment [5] stood at 4%.

Consider `COC(=O)c1c2c(c(C)[n+]([O-])c1C)C(=O)C=C(NCc1ccc(F)c(Cl)c1)C2=O` [Compound 19], for which the GI50 was under 150 nM with K-562; 51 nM with K-562 (leukemia); 211 nM in the experiment on COLO-205; 321 nM with NCI-ADR/RES; 41 nM with UACC-62; 229 nM in the experiment with MCF-7. Further, the GI50 in the experiment with LOX-IMVI was 31 nM; in the experiment with OVCAR-3, 199 nM; with OVCAR-8, 249 nM; in experiment [4] (setting [6]) it was 290 nM; in experiment [4] (setting [7]), 560 nM. Moreover, the activity at 10 µM in experiment [5] was -47%. For the same compound, the “mean growth (%, 10 μM)” value in experiment [5] is reported as -47%.

As for `COc1cc([C@@H]2c3cc4c(cc3[C@@H](O[C@@H]3O[C@@H]5CO[C@@H](C)O[C@H]5[C@H](O)[C@H]3O)[C@H]3COC(=O)[C@H]23)OCO4)cc(OC)c1O` [etoposide, reference compound], the “viability of NCI-H460/R spheroids” value in the experiment with NCI-H460/R spheroids is recorded as “did not significantly affect the viability of the spheroids”.

With `CC(=O)O[C@H]1C(=O)[C@@]2(C)[C@H]([C@H](OC(=O)c3ccccc3)[C@]3(O)C[C@H](OC(=O)[C@H](O)[C@@H](NC(=O)c4ccccc4)c4ccccc4)C(C)=C1C3(C)C)[C@]1(OC(C)=O)CO[C@@H]1C[C@@H]2O` [paclitaxel, reference compound], the GI50 in the experiment on DLD1-TxR amounted to 970 ± 210 nM; in the experiment with DLD1, 20 ± 3 nM.
